Measurements as given in patent US20050070595A1, “Trioxane derivatives as antimalaria or anticancer compounds” (priority 2001, published 2005).
Several values for one entry are separate records, joined by “and”; a condition that tells them apart may be missing. Identical values can stand only once. Like-named read-outs stand apart in the source and are kept apart here.

Test system: chloroquine-resistant K1 strain of P. falciparum
Assay: 48-h sensitivity assay, [3H]-hypoxanthine incorporation as an assessment of parasite growth
Format: cell-based
Protocol: The antimalarial activity of the new dimers was tested against the chloroquine-resistant K1 strain of P. falciparum. A single uncloned K1, chloroquine resistant strain of P. falciparum from Thailand was used. Parasites were maintained in continuous culture using the method of Trager and Jenson. (J. Parasitol, 1977, 63, […]). Cultures were grown in flasks containing human erythrocytes (2-5%) with parasitemia in the range of 1% to 10% suspended in RPMI 1640 medium supplemented with 25 mM HEPES and 32 mM NaHCO3, and 10% human serum (complete medium). Cultures were gassed with a mixture of 3% O2, 4% CO2 and 93% N2.
Antimalarial activity was assessed with an adaption of the 48-h sensitivity assay of Desjardins et al. (Antimicrob. Agents. Chemother., 1979, 16, 710-718) using [^3H]-hypoxanthine incorporation as an assessment of parasite growth. Stock drug solutions were prepared in 100% dimethylsulphoxide (DMSO) and diluted to the appropriate concentration using complete medium. Assays were performed in sterile 96-well microtitre plates, each plate containing 200 μl of parasite culture (2% parasitemia, 0.5% haematocrit) with or without 10 μl drug dilutions. Each drag was tested in triplicate and parasite growth was compared to control wells (which constituted 100% parasite growth). After 24-h incubation at 37° C., 0.5 μCi hypoxanthine was added to each well. Cultures were incubated for a further 24 h before they were harvested onto filter-mats, dried for 1 h at 55° C. and counted using a Wallac 1450 Microbeta Trilux Liquid scintillation and luminescence counter. IC50 values were calculated by interpolation of the probit transformation of the log dose—response curve.

[1] = Plasmodium falciparum, K1, 48 h, mean of the determinations, K1 strain, 48 h, read-out: Mean IC50
[2] = single determinations (triplicate), K1 strain, 48 h, read-out: IC50
[3] = mean of the determinations, K1 strain, 48 h, read-out: Mean IC50

Compound | IC50 [2] | IC50 [3] | further results
CO[C@H]1O[C@@H]2O[C@@]3(C)CC[C@H]4[C@H](C)CC[C@@H]([C@H]1C)[C@@]24OO3 [Artemether, artemether, reference compound] | 2 nM |  | IC50 [1]: 2.8 nM
C[C@H]1[C@@H](CCOC(=O)CCC(=O)OCC[C@H]2O[C@@H]3O[C@]4(C)CC[C@H]5[C@H](C)CC[C@@H]([C@H]2C)[C@@]35OO4)O[C@@H]2O[C@]3(C)CC[C@H]4[C@H](C)CC[C@@H]1[C@@]24OO3 [PV33] |  | 1.8 nM | 
CCN(CC)CCCC(C)Nc1ccnc2cc(Cl)ccc12 (stereo not shown) [Chloroquine, chloroquine, reference compound] |  |  | IC50 (Plasmodium falciparum, K1, 48 h): 190 nM; IC50 (Plasmodium falciparum, K1, 48 h, read-out: Mean IC50): 190 nM
CC1CCC2C(C)C(CCOP(=O)(OCCC3OC4OC5(C)CCC6C(C)CCC(C3C)C46OO5)Oc3ccccc3)OC3OC4(C)CCC1C32OO4 (stereo not shown) [PV37] |  | 0.5 nM | 
C[C@H]1[C@@H](CCOCc2ccccc2COCC[C@H]2O[C@@H]3O[C@]4(C)CC[C@H]5[C@H](C)CC[C@@H]([C@H]2C)[C@@]35OO4)O[C@@H]2O[C@]3(C)CC[C@H]4[C@H](C)CC[C@@H]1[C@@]24OO3 [PV45] |  | 2.7 nM | 
C[C@H]1[C@@H](CCOCc2ccc(COCC[C@H]3O[C@@H]4O[C@]5(C)CC[C@H]6[C@H](C)CC[C@@H]([C@H]3C)[C@@]46OO5)cc2)O[C@@H]2O[C@]3(C)CC[C@H]4[C@H](C)CC[C@@H]1[C@@]24OO3 [PV41] | 2.6 nM and 3.1 nM and 1.6 nM | 2.4 nM | 
C[C@H]1[C@@H](CCOCc2cccc(COCC[C@H]3O[C@@H]4O[C@]5(C)CC[C@H]6[C@H](C)CC[C@@H]([C@H]3C)[C@@]46OO5)c2)O[C@@H]2O[C@]3(C)CC[C@H]4[C@H](C)CC[C@@H]1[C@@]24OO3 [PV43] |  | 2.9 nM | 
CC1CCC2C(C)C(CCOC(=O)CCCC(=O)OCCC3OC4OC5(C)CCC6C(C)CCC(C3C)C46OO5)OC3OC4(C)CCC1C32OO4 (stereo not shown) [PV35] | 2.6 nM and 3.1 nM and 1.6 nM | 2.4 nM | 
C[C@H]1[C@@H](CCOC(=O)c2cccc(C(=O)OCC[C@H]3O[C@@H]4O[C@]5(C)CC[C@H]6[C@H](C)CC[C@@H]([C@H]3C)[C@@]46OO5)c2)O[C@@H]2O[C@]3(C)CC[C@H]4[C@H](C)CC[C@@H]1[C@@]24OO3 [PV31, 10β-(2-hydroxyethyl)-deoxoartemisininbis-ester(1,3)-dimer] | 39.9 nM and 43.3 nM | 42.2 nM | 
C[C@@H]1CC[C@H]2[C@@H](C)C(=O)O[C@@H]3O[C@@]4(C)CC[C@@H]1[C@]32OO4 [Artemisinin, reference compound] |  |  | IC50 [1]: 12.3 nM; IC50 (Plasmodium falciparum, K1, 48 h, single determinations (triplicate), K1 strain, 48 h, read-out: IC50): 12.3 nM
10β-(2-Hydroxyethyl)-deoxoartemisinin bis-ester (1,2)-dimer [PV30] |  | 2.6 nM | 
C[C@H]1[C@@H](CCOC(=O)c2ccc(C(=O)OCC[C@H]3O[C@@H]4O[C@]5(C)CC[C@H]6[C@H](C)CC[C@@H]([C@H]3C)[C@@]46OO5)cc2)O[C@@H]2O[C@]3(C)CC[C@H]4[C@H](C)CC[C@@H]1[C@@]24OO3 [PV32, 10-β-(2-Hydroxyethyl)-deoxoartemisinin bis-ester(1,4)-dimer] | 5.5 nM and 5.2 nM and 3 nM | 4.6 nM | 
